The values that follow come from patent US20250241890A1, “1,4-DIUREAS AND 1,4-DITHIOUREAS AND USES THEREOF” (Purdue Research Foundation, priority 2024, published 2025).

“Also recorded” adds a separate entry of the source.

The target of experiment [1] is T1, α-synuclein (α-syn) (Homo sapiens, UniProt P37840).
T1 construct: purchased rPeptide (Watkinsville, GA)
Nature of the experiment: PICUP assay of α-syn oligomer formation. The experiment is classed as biochemical. The conditions noted are these: α-syn 60 μM, compound 50 μM (~molar ratio 1:1). Here is the method:
Chemical and peptide source. Dimethylsulfoxide (DMSO) and thioflavin-T (ThT) were purchased from Alfa Aesar (Ward Hill, MA). Recombinant α-synuclein (α-syn) was procured from rPeptide (WatKinsville, GA). The recombinant p-tau isoform 1N4R was prepared as published previously (Fortin et al. 2021, Sui et al. 2015, Liu et al. 2020). Concerning the preparation of tau 0N4R, a bacterial expression plasmid consisting of the vector pET30a carrying a cDNA encoding the human Tau 0N4R isoform was a kind gift of Dr. Benjamin Wolozin (Boston University). E. coli stock (Rosetta BL21 E. coli (CamR) containing pET30a [0N4R tau wt] (KanR)) was grown in LB medium supplemented with kanamycin (50 μg/mL) and chloramphenicol (50 μg/mL). Protein over-expression was induced by the addition of 1 mM IPTG for ˜18 hours at 37° C., and cells were pelleted by centrifugation at 6,000 g for 15 minutes at 4° C. The cells were resuspended in lysis buffer (10 mM Hepes, pH 7.4, 50 mM NaCl, 1 mM MgCl2, 1 mM PMSF, 1× PIC, and 0.5 mM DTT) and lysed by sonication at 30 seconds “On” and 1 minute “Off” at ˜30-45% power for ˜3-5 minutes. Lysate was centrifuged at 10,000 rpm for 10 minutes at 4° C., and supernatant was transferred with 7.8 ml (total) of 3M NaCl. The lysate was incubated for 10 minutes in 80° C. water bath, then cooled for 10 minutes in an ice bath. The lysate was centrifuged at 10,000 rpm at 4° C. for 10 minutes, and the supernatant was transferred to a new tube. The supernatant was dialyzed overnight against cation exchange buffer (50 mM MES, […], 1 mM DTT, pH 6.0). The dialysate was loaded onto a HiPrep SP HP column, and proteins were eluted with a linear gradient ranging from 50 mM to 1 M NaCl. General Characterizations. ^1H and ^13C {1H} NMR spectra were recorded using a 500 MHz Bruker instrument working at a frequency of 500 MHz for ^1H and at 126 MHz for ^13C. Chemical shifts are reported in ppm using residual solvent resonances as internal reference (δ 2.50 and δ 39.51 for ^1H and ^13C in DMSO-d6, respectively). ^1H NMR data are reported as follows. b=broad, s=singlet, d=doublet, t=triplet, q=quartet, and m=multiplet. Coupling constants are given in hertz. The purity of all compounds and synthetic intermediates was judged to be 95% or better based on ^1H NMR. IR measurements were performed in a Nicolet FTIR as thin films in the Purdue Drug Discovery facility. High-resolution mass spectrometry analyses were conducted at the MSU Mass Spectrometry facility. Thioflavin fluorescence assays. Thioflavin fluorescence assays were used to monitor fibril formation of commercial recombinant α-syn at a final concentration of 2 μM and treated with control DMSO and different compounds. The recombinant α-syn obtained from rPeptide has been validated with proper quality control to confirm the monomeric state of the protein. Kinetics of fibril formation have been performed using ThT as published previously.^6, 12, 13, 24 The fluorescence emission experiments were performed with the excitation and emission wavelengths set at 440 and 485 nm, respectively, with a Synergy HT multi-mode microplate reader (BioTek, Winooski, VT). Samples were measured in three replicates. Experiments were repeated three times using different α-syn stock solutions. For each time point, arbitrary units of fluorescence were calculated from the mean values normalized against the maximum value. The percentage of fluorescence intensity at the plateau phase in Table 1 was expressed as mean #SEM. Concerning the dose response curve depicted in FIG. 2, the data were plotted using GraphPad Prism. Photo-induced Cross-linking of Unmodified Proteins (PICUP) Assay. […] Different compounds were added to the protein solution at a final concentration of 50 μM, resulting in a molar ratio of 1:1. PICUP assays were performed with the following controls: samples without light exposition, without Ru(bpy) or ammonium persulfate, and without compound (i.e., 0.125% DMSO). […]

Experiment [2] addresses T1, α-synuclein (α-syn). The experiment in a line: Thioflavin T (ThT) fluorescence assay of α-syn fibril formation. The experiment is classed as biochemical. The note with it: α-syn 2 μM final concentration, compounds at 100 μM, average of three replicates with SEM; read-out: % ThT intensity (100 μM), maximum ThT intensity in percentage. The procedure: Chemical and peptide source. Dimethylsulfoxide (DMSO) and thioflavin-T (ThT) were purchased from Alfa Aesar (Ward Hill, MA). Recombinant α-synuclein (α-syn) was procured from rPeptide (WatKinsville, GA). The recombinant p-tau isoform 1N4R was prepared as published previously (Fortin et al. 2021, Sui et al. 2015, Liu et al. 2020). Concerning the preparation of tau 0N4R, a bacterial expression plasmid consisting of the vector pET30a carrying a cDNA encoding the human Tau 0N4R isoform was a kind gift of Dr. Benjamin Wolozin (Boston University). E. coli stock (Rosetta BL21 E. coli (CamR) containing pET30a [0N4R tau wt] (KanR)) was grown in LB medium supplemented with kanamycin (50 μg/mL) and chloramphenicol (50 μg/mL). Protein over-expression was induced by the addition of 1 mM IPTG for ˜18 hours at 37° C., and cells were pelleted by centrifugation at 6,000 g for 15 minutes at 4° C. The cells were resuspended in lysis buffer (10 mM Hepes, pH 7.4, 50 mM NaCl, 1 mM MgCl2, 1 mM PMSF, 1× PIC, and 0.5 mM DTT) and lysed by sonication at 30 seconds “On” and 1 minute “Off” at ˜30-45% power for ˜3-5 minutes. Lysate was centrifuged at 10,000 rpm for 10 minutes at 4° C., and supernatant was transferred with 7.8 ml (total) of 3M NaCl. The lysate was incubated for 10 minutes in 80° C. water bath, then cooled for 10 minutes in an ice bath. The lysate was centrifuged at 10,000 rpm at 4° C. for 10 minutes, and the supernatant was transferred to a new tube. The supernatant was dialyzed overnight against cation exchange buffer (50 mM MES, […], 1 mM DTT, pH 6.0). The dialysate was loaded onto a HiPrep SP HP column, and proteins were eluted with a linear gradient ranging from 50 mM to 1 M NaCl. General Characterizations. ^1H and ^13C {1H} NMR spectra were recorded using a 500 MHz Bruker instrument working at a frequency of 500 MHz for ^1H and at 126 MHz for ^13C. Chemical shifts are reported in ppm using residual solvent resonances as internal reference (δ 2.50 and δ 39.51 for ^1H and ^13C in DMSO-d6, respectively). ^1H NMR data are reported as follows. b=broad, s=singlet, d=doublet, t=triplet, q=quartet, and m=multiplet. Coupling constants are given in hertz. The purity of all compounds and synthetic intermediates was judged to be 95% or better based on ^1H NMR. IR measurements were performed in a Nicolet FTIR as thin films in the Purdue Drug Discovery facility. High-resolution mass spectrometry analyses were conducted at the MSU Mass Spectrometry facility. Thioflavin fluorescence assays. […] The recombinant α-syn obtained from rPeptide has been validated with proper quality control to confirm the monomeric state of the protein. Kinetics of fibril formation have been performed using ThT as published previously.^6, 12, 13, 24 The fluorescence emission experiments were performed with the excitation and emission wavelengths set at 440 and 485 nm, respectively, with a Synergy HT multi-mode microplate reader (BioTek, Winooski, VT). Samples were measured in three replicates. Experiments were repeated three times using different α-syn stock solutions. For each time point, arbitrary units of fluorescence were calculated from the mean values normalized against the maximum value. The percentage of fluorescence intensity at the plateau phase in Table 1 was expressed as mean #SEM. Concerning the dose response curve depicted in FIG. 2, the data were plotted using GraphPad Prism. Photo-induced Cross-linking of Unmodified Proteins (PICUP) Assay. To induce oligomerization by cross-linking, α-syn (from Rpeptide, LLC) was diluted in 10 mM phosphate buffer (pH 7.4) to reach a final concentration of 50 μM. Different compounds were added to the protein solution at a final concentration of 50 μM, resulting in a molar ratio of 1:1. PICUP assays were performed with the following controls: samples without light exposition, without Ru(bpy) or ammonium persulfate, and without compound (i.e., 0.125% DMSO). […]

With `O=C(Nc1ccc(NC(=O)Nc2ccc3cc[nH]c3c2)cc1)Nc1ccc2cc[nH]c2c1` [Compound 5, 3-(1H-indol-6-yl)-1-(4-{[(1H-indol-6-yl)carbamoyl]amino}phenyl)urea], the “effect on α-syn oligomer formation (high molecular weight bands) by PICUP” value at α-synuclein (α-syn) [1] is “mediocre; also recorded: reduced slightly”. Further, at α-synuclein (α-syn) [2], the remaining activity at 100 µM turned out to be 58.7%.
The like results for `O=C(Nc1ccc(NC(=O)Nc2ccc3[nH]ccc3c2)cc1)Nc1ccc2[nH]ccc2c1` [Compound 3, 3-(1H-indol-5-yl)-1-(4-{[(1H-indol-5-yl)carbamoyl]amino}phenyl)urea] were, in that order, “mediocre; also recorded: reduced slightly” and 57%.
The like results for `S=C(Nc1ccc(NC(=S)Nc2ccc3[nH]ccc3c2)cc1)Nc1ccc2[nH]ccc2c1` [Compound 4, 3-(1H-indol-5-yl)-1-(4-{[(1H-indol-5-yl)carbamothioyl]amino}phenyl)thiourea] were, in that order, “mediocre; also recorded: reduced slightly” and 46.2%.
Take `S=C(Nc1ccc(NC(=S)Nc2ccc3cc[nH]c3c2)cc1)Nc1ccc2cc[nH]c2c1` [Compound 6, 3-(1H-indol-6-yl)-1-(4-{[(1H-indol-6-yl)carbamothioyl]amino}phenyl)thiourea]: the “effect on α-syn oligomer formation (high molecular weight bands) by PICUP” value at α-synuclein (α-syn) [1] was “mediocre; also recorded: reduced slightly”. Besides, the remaining activity at 100 µM at α-synuclein (α-syn) [2] was 36.1%.
